For orientation: IC50 means the concentration at which inhibition is half-maximal. For orientation: inhibition means the percentage by which the read-out fell short of the control. By Cmax is commonly meant the maximum level reached in the sampled fluid or tissue.

In one data set the target is T1, CYP1A2 (Homo sapiens, UniProt P05177).
T1 sequence (P05177 1-516): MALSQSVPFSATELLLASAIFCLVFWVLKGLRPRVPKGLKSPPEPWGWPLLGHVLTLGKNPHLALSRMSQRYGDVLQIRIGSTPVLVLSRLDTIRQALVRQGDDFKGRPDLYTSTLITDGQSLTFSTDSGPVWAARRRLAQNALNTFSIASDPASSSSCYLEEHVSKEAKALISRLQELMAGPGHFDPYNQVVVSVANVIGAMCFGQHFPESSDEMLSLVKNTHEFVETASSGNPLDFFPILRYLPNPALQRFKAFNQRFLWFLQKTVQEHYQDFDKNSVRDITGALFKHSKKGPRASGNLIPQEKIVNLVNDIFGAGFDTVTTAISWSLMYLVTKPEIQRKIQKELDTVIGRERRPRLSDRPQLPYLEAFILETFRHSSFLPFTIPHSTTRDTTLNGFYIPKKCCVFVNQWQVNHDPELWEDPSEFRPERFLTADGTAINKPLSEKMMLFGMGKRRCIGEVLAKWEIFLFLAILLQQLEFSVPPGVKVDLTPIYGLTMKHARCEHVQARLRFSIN
As to the kind of experiment: CYP1A2 inhibition, phenacetin O-deethylase assay in human liver microsomes. It counts as in vitro ADME. The arrangement: from tissue; host or cells: in vivo, 14 healthy male subjects. The following applies: for IC50: estimated.

Another data set deals with CYP2C19 (Homo sapiens, UniProt P33261). As to the kind of experiment: CYP2C19 inhibition, S-mephenytoin 4'-hydroxylase assay in human liver microsomes. In kind it is in vitro ADME. Set-up: from tissue; host or cells: in vivo, 14 healthy male subjects. To be noted: for IC50: estimated. Here is the method:
Inhibition of the biotransformation of CYP‐specific substrates by GLPG1205 was studied using human liver microsomes. Incubation was performed at 37°C with the following conditions: n = 3 for all assays; 0.1 M phosphate buffer (pH 7.4), the cofactor nicotinamide adenine dinucleotide phosphate (NADPH) incubated at 2 mM, the CYP‐specific substrate incubated at 1 nonsaturating concentration, and GLPG1205. Additional incubation was performed with (1) a 30‐minute preincubation step of GLPG1205 with microsomes before the addition of the cofactor NADPH and CYP substrate; and (2) a 30‐minute preincubation step of GLPG1205 with microsomes and the cofactor NADPH, before the addition of the CYP substrate. […] The CYP‐specific substrates were incubated per the above conditions at the following concentrations: tolbutamide, 200 μM, CYP2C9 substrate; S‐mephenytoin, 60 μM, CYP2C19 substrate; phenacetin, 40 μM, CYP1A2 substrate.
Further details of the assays used for each CYP substrate are reported in the Supplemental Methods. Metabolites of the CYP‐specific substrates (acetaminophen for CYP1A2, hydroxytolbutamide for CYP2C9, hydroxymephenytoin for CYP2C19) were quantified using LC‐MS/MS.
Enzymatic activity in the presence of GLPG1205 was expressed as a percentage of the control activity obtained with the vehicle only (ie, without GLPG1205 or reference inhibitor). Decreases in activity of less than 20% were not considered clinically relevant.
Protocol for CYP Inhibition of the biotransformation of CYP-specific substrates by GLPG1205 was studied using human liver microsomes.^7 Incubations were performed at 37°C with the following conditions: n = 3 for all assays; 0.1 M phosphate buffer pH 7.4; the cofactor β-nicotinamide adenine dinucleotide phosphate (NADPH) incubated at 2 mM; the CYP-specific substrate incubated at one non-saturating concentration; and GLPG1205. Additional incubations were performed with: 1) a 30-minute preincubation step of GLPG1205 with microsomes before addition of the cofactor NADPH and CYP substrate; and 2) a 30-minute preincubation step of GLPG1205 with microsomes and the cofactor NADPH, before addition of the CYP substrate.
The CYP-specific substrates were incubated at the following conditions: tolbutamide (200 µM; CYP2C9); S-mephenytoin (60 µM; CYP2C19); phenacetin (40 µM; CYP1A2).^8-10 Reference inhibitors (as detailed in the previous section) were incubated in parallel. […]
A two-fold dilution in D3-OH-mephenytoine at 1 µM in water with 0.1% formic acid was applied to the supernatants and then analysis was performed by LC-MS/MS with chromatographic separation. […] The quantification of the metabolite, hydroxymephenytoin, was performed in MRM mode using the 235.1 to 150.2 transition. […]

Data set [1] in a line: Phase 1 drug-drug interaction study: plasma PK of GLPG1205. It counts as in vivo, human. To be noted: for AUC: 100 mg. The procedure:
The protein precipitated mixture was centrifuged at approximately 14 000 g for 15 minutes at room temperature. The clear supernatant was diluted with dilution solvent (water with 0.05% of trifluoroacetic acid) and then transferred into LC-MS plates. […] Chromatographic separation was performed on a Kinetex C18 column (50 x 3.0 mm, 2.6 µm from Phenomenex, Torrance, CA, USA) set at 40°C by using a Nexera high performance liquid chromatography (HPLC) system (Shimadzu, Kyoto, Japan) in isocratic elution mode.

Read-outs that look alike come from different tables or passages of the source.

CYP2C19, sequence (P33261 whole entry): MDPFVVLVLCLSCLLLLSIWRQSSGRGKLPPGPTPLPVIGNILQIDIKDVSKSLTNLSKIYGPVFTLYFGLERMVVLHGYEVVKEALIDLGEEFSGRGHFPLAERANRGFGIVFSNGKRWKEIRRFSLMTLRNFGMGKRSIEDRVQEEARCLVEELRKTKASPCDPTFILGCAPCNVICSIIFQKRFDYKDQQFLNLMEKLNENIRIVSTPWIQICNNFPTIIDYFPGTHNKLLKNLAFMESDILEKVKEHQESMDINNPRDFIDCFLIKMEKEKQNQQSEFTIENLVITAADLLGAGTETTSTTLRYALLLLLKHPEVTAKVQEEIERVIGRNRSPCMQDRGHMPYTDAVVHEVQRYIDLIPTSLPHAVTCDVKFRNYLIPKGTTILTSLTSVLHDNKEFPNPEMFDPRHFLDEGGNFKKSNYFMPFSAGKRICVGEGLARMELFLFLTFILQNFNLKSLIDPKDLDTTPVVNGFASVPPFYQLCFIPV
Description for CYP1A2: Inhibition of the biotransformation of CYP‐specific substrates by GLPG1205 was studied using human liver microsomes. Incubation was performed at 37°C with the following conditions: n = 3 for all assays; 0.1 M phosphate buffer (pH 7.4), the cofactor nicotinamide adenine dinucleotide phosphate (NADPH) incubated at 2 mM, the CYP‐specific substrate incubated at 1 nonsaturating concentration, and GLPG1205. Additional incubation was performed with (1) a 30‐minute preincubation step of GLPG1205 with microsomes before the addition of the cofactor NADPH and CYP substrate; and (2) a 30‐minute preincubation step of GLPG1205 with microsomes and the cofactor NADPH, before the addition of the CYP substrate. GLPG1205 was tested at 6 concentrations: 0.5, 1, 5, 10, 50, and 100 μM (0.19, 0.38, 1.89, 3.78, 18.9, and 37.8 μg/mL, respectively), for each condition. The CYP‐specific substrates were incubated per the above conditions at the following concentrations: tolbutamide, 200 μM, CYP2C9 substrate; S‐mephenytoin, 60 μM, CYP2C19 substrate; phenacetin, 40 μM, CYP1A2 substrate.
GLPG1205 was tested at 6 concentrations: 0.5, 1, 5, 10, 50 and 100 µM (0.19, 0.38, 1.89, 3.78, 18.9, 37.8 µg/mL, respectively).
The CYP-specific substrates were incubated at the following conditions: tolbutamide (200 µM; CYP2C9); S-mephenytoin (60 µM; CYP2C19); phenacetin (40 µM; CYP1A2).^8-10 Reference inhibitors (as detailed in the previous section) were incubated in parallel. For all assays, the following controls were incubated in parallel: 1) with CYP substrate, without microsomes, with NADPH, without inhibitor (to check for substrate stability); 2) with CYP substrate, with microsomes, without NADPH, without inhibitor (to check for non-NADPH-dependent metabolism of substrate); and 3) without substrate, with microsomes, with NADPH, with test compound or reference inhibitor (to check for potential analytical interference).
At the end of the incubation period, the reaction was stopped with the addition of 0.15 M phosphoric acid (300 µL); proteins were allowed to precipitate for a minimum of 1 hour at approximately 4°C. After centrifugation at 3200 g for 20 minutes at approximately + 4°C, supernatants were collected.

For `O=c1nc(OC[C@@H]2COCCO2)cc2n1CCc1cc(C#CC3CC3)ccc1-2` [GLPG1205, 9‐cyclopropylethynyl‐2‐[(S)‐1‐(1,4)dioxan‐2‐ylmethoxy]‐6,7‐dihydropyrimido[6,1‐a]isoquinolin‐4‐one], the “inhibition of CYP1A2 in words” value at CYP1A2 (GLPG1205 50‐100 μM) is recorded as “Weak”. The IC50 is at least 100 µM at CYP1A2 (human liver microsomes, read-out: IC50 for inhibition of CYP1A2); at least 99.9 µM on CYP1A2 (equivalent of ≥100 μM, read-out: IC50 for inhibition of CYP1A2, equivalent); at least 50 µM at CYP2C19 (human liver microsomes, read-out: IC50 for inhibition of CYP2C19); at least 49.9 µM on CYP2C19 (equivalent of ≥50 μM, read-out: IC50 for inhibition of CYP2C19, equivalent). The molecule also registered an inhibition at 7 min, 100 µM against CYP1A2 (human, liver microsomes, pH 7.4, probe phenacetin 40 µM, GLPG1205 100 μM following a 30‐minute preincubation with NADPH) of 52.9%. The inhibition at 7 min against CYP1A2 (human, liver microsomes, pH 7.4, probe phenacetin 40 µM, GLPG1205 50‐100 μM, phenacetin 40 μM) lay within 20.4 to 38%. The “inhibition of CYP2C19 in words” value on CYP2C19 (GLPG1205 50‐100 μM) is “moderate and reversible”. At CYP2C19 (human, liver microsomes, pH 7.4, probe S-mephenytoin 60 µM, GLPG1205 50‐100 μM without preincubation, S‐mephenytoin 60 μM), this molecule gave an inhibition at 20 min of 44.2 to 49.3%. Further, the “day by which steady state was reached” value in data set [1] (GLPG1205 100 mg once a day, trough plasma concentrations) was at most 9 days. The AUC in data set [1] (male, human, plasma, oral, day 13, GLPG1205 100 mg once a day, n = 5, arithmetic mean (CV%), read-out: AUC0‐inf) was 373 µg·h/mL; in data set [1] (male, human, plasma, oral, day 13, GLPG1205 100 mg once a day, n = 14, arithmetic mean (CV%), read-out: AUC0‐t), 395 µg·h/mL. In data set [1] (male, human, plasma, oral, day 13, GLPG1205 100 mg once a day, n = 14, arithmetic mean (CV%)), this molecule returned a Cmax of 5010 ng/mL. The half-life in data set [1] (male, human, plasma, oral, day 13, GLPG1205 100 mg once a day, n = 14, arithmetic mean (CV%), read-out: t1/2, λz (converted)) is 74.1 h. In data set [1] (male, human, plasma, oral, day 13, GLPG1205 100 mg once a day, n = 14, median (min‐max)), this molecule registered a tmax of 2 h.

The values are drawn from article PMC8453848, “Effect of GLPG1205, a GPR84 Modulator, on CYP2C9, CYP2C19, and CYP1A2 Enzymes: In Vitro and Phase 1 Studies” (Clinical Pharmacology in Drug Development, 2021).
